The source of these data is patent publication US20210024975A1, “METHODS FOR IDENTIFYING INHIBITORS OF LIPID A DEACYLASE AND […] RELATED TO SAME” (UNIVERSITY OF WASHINGTON, priority 2019, published 2021).

The test concerns P. gingivalis 33277 mutants. Kind of test: polymixin B sensitivity of P. gingivalis strains. In kind it is cell-based, Porphyromonas gingivalis. To be noted: J5-c5 transposon mutant; similar to the wild-type bacterium.

For the substance polymixin B, the “polymixin B sensitivity of J5-c5 mutants” value is given as “resistance”.
